# US20160213849A1, “CONDITIONAL REQUIRED PRIMING” (SANOFI-AVENTIS DEUTSCHLAND GMBH, priority 2013, published 2016)
# “And” between values parts separate entries of the source, which are not always exact repeats. Equal entries are not always repeated.
# Key:
# Format in all cases: cell-based
# [1] = test system: Escherichia coli; experiment: preservative efficacy test of inoculated m-cresol test solutions; conditions: 1.8 mg/ml m-cresol
# Method: (§1) In a first experiment, the minimum m-cresol concentration necessary to ensure microbiological integrity was determined.
# (§2) Test solutions with m-cresol concentrations of between 2.7 mg/ml down to 1.5 mg/ml were inoculated with an inoculum of different bacteria and fungi/yeast and stored for 28 days. During the test, the bacteria and fungi/yeast population of the test solutions were repeatedly analyzed.
# [2] = test system: Staphilococcus aureus; experiment: as above; conditions: 1.8 mg/ml m-cresol
# Method: as §1, §2
# [3] = test system: Candida albicans; experiment: as above; conditions: 1.8 mg/ml m-cresol
# Method: as §1, §2
# [4] = test system: Aspergillus niger; experiment: as above; conditions: 1.8 mg/ml m-cresol
# Method: as §1, §2
# [5] = test system: bacteria and fungi/yeast; experiment: comparison of test solution results to Ph. Eur. and USP criteria
# Method: The Ph. Eur. and USP criteria are given in table 1, wherein the numbers designate the required order of magnitude in CFU (colony forming unit) decrease as a function of time since the time of contamination (T0).
# as §2
# The analysis presented in table 2 for the 1.8 mg/ml m-cresol test solution was also performed for the test solutions with different m-cresol contents. The results were then compared to the Ph.Eur. and USP criteria to determine, which m-cresol contents are sufficient to fulfil these criteria.
# [6] = test system: Pseudomonas aeruginosa; experiment: preservative efficacy test of inoculated m-cresol test solutions; set-up: unit not given beside the values; conditions: 1.8 mg/ml m-cresol
# Method: as §1, §2
smiles,measurement,setting,value
Cc1cccc(O)c1 [m-cresol],Escherichia coli content,[1]; 6 h,55
same,Escherichia coli content,[1]; 24 h,<10
same,Escherichia coli content,[1]; 7 d,<10
same,Escherichia coli content,[1]; 14 d,<10
same,Escherichia coli content,[1]; 28 d,<10
same,Escherichia coli content,[1]; Start (T0),190000
same,Staphilococcus aureus content,[2]; 6 h,2200
same,Staphilococcus aureus content,[2]; 24 h,<10
same,Staphilococcus aureus content,[2]; 7 d,<10
same,Staphilococcus aureus content,[2]; 14 d,<10
same,Staphilococcus aureus content,[2]; 28 d,<10
same,Staphilococcus aureus content,[2]; Start (T0),170000
same,Candida albicans content,[3]; 7 d,100
same,Candida albicans content,[3]; 14 d,30
same,Candida albicans content,[3]; 28 d,<10
same,Candida albicans content,[3]; Start (T0),400000
same,Aspergillus niger content,[4]; 7 d,15
same,Aspergillus niger content,[4]; 14 d,<10
same,Aspergillus niger content,[4]; 28 d,<10
same,Aspergillus niger content,[4]; Start (T0),250000
same,m-cresol content still enough to fulfil both the Ph.Eur. criterion A and the USP criteria,[5]; conclusion of first experiment,2.1 mg/mL and 1.8 mg/mL
same,m-cresol content down to which the USP criteria are fulfilled,[5]; lowest content tested 1.5 mg/ml,1.5 mg/mL
same,Pseudomonas aeruginosa content,[6]; 6 h,<10
same,Pseudomonas aeruginosa content,[6]; 24 h,<10
same,Pseudomonas aeruginosa content,[6]; 7 d,<10
same,Pseudomonas aeruginosa content,[6]; 14 d,<10
same,Pseudomonas aeruginosa content,[6]; 28 d,<10
same,Pseudomonas aeruginosa content,[6]; Start (T0),23000
